Measurements: patent US12613249B2 (THE ROYAL INSTITUTION FOR THE ADVANCEMENT OF LEARNING / …, priority 2019, dated 2026)
Square brackets hold non-standard residues; d marks the D form. Peptide text beside a SMILES is read from it.

Assay: Ex-vivo stability in mouse liver S9-fraction, MALDI-TOF MS
Format: in vitro ADME, C57BL/6 mice
Procedure: The stability of D-AIP in mouse plasma, blood and liver S-9 fraction was investigated to ascertain the metabolic resistance towards proteases and enzymatic activities in these matrices. Whole mouse blood obtained from healthy C57BL/6 male and female mice (6 mice in total) were collected in lithium heparin containing tubes, pooled and stored at 4° C. prior to its use. A fraction of the pooled blood was immediately centrifuged at 1500×g for 10 min at 4° C. to obtain the plasma. The whole blood and plasma samples were spiked with PBS (as control) or AIP (L-AIP, D-AIP or sD-AIP respectively) to make a final concentration of 1 ug/mL and incubated at 37° C. Initial samples were withdrawn to represent t=0 prior to incubation and others were withdrawn 1, 3 and 24 h respectively. Fresh mouse liver also obtained from C57BL/6 male and female mice were pooled, homogenized in 0.15 M Potassium chloride (KCl) and centrifuged at 9000×g. The supernatant represents liver homogenate (S-9) fraction which was mixed with other buffers to formulate the liver S-9 mix as previously described (Kolrep et al., 2017, Toxicol In Vitro, 42:161-170). Liver S-9 mix were spiked with AIP to make a final concentration of 1 μg/mL (L-AIP, D-AIP or sD-AIP respectively) and incubated at 37° C. Just after the addition of NADPH, 100 μL aliquot which represents t=0 samples were withdrawn and others were sampled accordingly at predetermined time points. 400 μL of ice cold MeOH was added to the spiked plasma, blood or liver S-9 fraction respectively, to precipitate the microsomal protein. The samples were then vigorously mixed for 30 s to facilitate extraction and centrifuged for 10 minutes at 13000 rpm, the supernatant was subjected to sample clean up by C18 ZipTip (EMD Millipore Corporation), the eluates were spotted with CHCA matrix on the ground steel MALDI-TOF target and analyzed with MALDI-TOF MS. Applying the t=0 peak area as 100% the intensities of the other time points were compared relatively for interpretation. […]

For `C[C@H](O)[C@@H](NC(=O)CNC(=O)[C@H](N)CCCNC(=N)N)C(=O)N[C@H](Cc1ccccc1)C(=O)N[C@H](CCC(=O)O)C(=O)NCC(=O)N[C@H](CCCCN)C(=O)N[C@H](Cc1ccccc1)C(=O)O` [D-AIP] (H-[dR]G[dT][dF][dE]G[dK][dF]-OH; N-terminus and C-terminus assumed), the “stability, MALDI-TOF MS signal (941 m/z)” value (mouse liver S9-fraction, 37° C., 24 h) was “relatively stable over 24 h” and the “signal intensity compared to the unincubated sample” value (mouse liver S-9 fraction, after 24 h) was “three-fold decreased intensity”.
